# Source: US7402600B2, “Nitroderivatives of cardiovascular agents” (NicOx S.A., priority 1999, dated 2008)
# “Also recorded” adds a separate entry of the source. Read-outs that look alike come from different tables or passages of the source.
# Legend:
# [1] = system: gastric mucosa; assay: Example F6: gastric tolerability of invention compounds versus precursor drugs, with or without L-NAME; format: in vivo, rats
# Excerpt: Gastric Tolerability Test of the Compounds According to the Invention in the Confront of the Corresponding Precursor Drugs in Conditions of Endothelial Dysfunctions Induced by L-NAME (N^w-nitro-L-arginine-methyl ester).
# [2] = system: gastrointestinal mucosa; assay: Test 1 (NEM): gastric tolerability of precursor drugs in rats treated or not with N-ethylmaleimide; conditions: rat, in vivo, 24 h
# Experimental: The animals (rats) are distributed in the following groups (no. 10 animals for group):
# • 1° group: treatment: only carrier (aqueous suspension 1% w/v of carboxymethylcellulose, dose: 5 ml/Kg when the drug is administered by os, or a physiologic solution when parenterally administered, i.e. by subcutaneous, intraperitoneal, intravenous or intramuscular route), • 2° group: treatment: carrier as above defined+NEM, B) Groups Treated with the Drug: • group I: treatment: carrier+drug, • group II: treatment: carrier+drug+NEM.
# The administration routes are those known for the drug, and can be the oral or subcutaneous, intraperitoneal, intravenous or intramuscular route.
# The animals are sacrificed after 24 hours and then one proceeds to the evaluation of the damage to the gastrointestinal mucosa.
# Test 1—Experimental Model in Vivo with N-ethylmaleimide (NEM): Study of the Gastric Tolerability of Some Drugs Screened as Precursors of the Compounds of the Invention.
# The animals (rats, weight about 200 g) are distributed in the following groups (No. 10 animals for group):
# • 1° group: treatment: only carrier (aqueous suspension 1% w/v of carboxymethylcellulose, dose: 5 ml/Kg when the drug is administered by os, physiologic solution when by parenteral route), • 2° group: treatment: carrier+NEM B) Groups Administered with Each Drug: • group I: treatment: carrier+drug, • group II: treatment: carrier+drug+NEM.
# The drug is administered one hour later, in suspension in the carrier. Animals are sacrificed after 24 hours and evaluation of the damage to the gastrointestinal mucosa is made by counting the number of rats, inside each group, with lesions to the stomach at a visual inspection. The total number of said rats is then divided by the total number of rats of the group and multiplied by 100.
# [3] = system: Human endothelial cells of the umbilical vein; assay: Test 2 (CIP): apoptosis (DNA fragmentation) induced by cumene hydroperoxide in endothelial cells; format: cell-based; conditions: for inhibition of apoptosis induced by CIP (in words, t Student p<0.01): CIP 5 mM; for activity at 100 µM: Homo sapiens, Endothelial cell, 1 h, read-out: Apoptosis % with respect to the controls treated only with CIP
# Experimental: Test 2 (CIP): Protection parameter of endothelial cell against the oxidative stress induced by cumene hydroperoxide (CIP).
# Human endothelial cells of the umbilical vein are prepared according to an usual standard procedure. Fresh umbilical veins are filled with a 0.1% by weight collagenase solution and incubated at 37° C. for 5 minutes.
# The cells are collected from the perfusate by centrifugation and harvested in culture flasks T-75, pretreated with human fibronectin. The cells are then harvested in the same medium, further added with 10 ng/ml of bovine hypothalamic growth factor. When the cells of the primary cell culture (i.e. that directly obtained from ex-vivo) form a single layer of confluent cells (about 8,000,000 cells/flask), the culture is stopped and the layers washed and trypsinized. The cellular suspensions are transferred into the wells of a cell culture plate having 24 wells, half of which is then additioned with the same culture medium containing the drug at a 10^−4M concentration, and harvested in a thermostat at 37° C. at a constant moisture. Only the cells coming from said first sub-cultures are used for the experiments with cumene hydroperoxide (CIP).
# Before starting the test, the cellular culture medium is removed and the cellular layers are carefully washed with a physiologic solution at a temperature of 37° C. The wells of the culture plate are then incubated for one hour with CIP at a 5 mM concentration in the culture medium. […] 5 replicates for each sample are carried out.
# Human endothelial cells of the umbilical vein are prepared according to a standard method. Fresh umbilical veins are filled with a collagenase solution 0.1% by weight and incubated at 37° C. for 5 minutes.
# The cells are collected from the perfusate by centrifugation at 800 rpm and harvested in culture flasks T-75, pretreated with human fibronectin. Cells are then harvested in the same medium, added with bovine hypothalamic growth factor (100 ng/ml). When the cells of the primary cell culture (the cells directly removed from ex-vivo umbilical vein) form a single layer of confluent cells (about 8,000,000 cells/flask), harvesting is stopped and the layers are washed and trypsinized. The cellular suspensions are transferred into wells of a culture plate having 24 wells, half of said wells being added with the same culture medium containing the drug at a 10^−4M concentration, and harvested in a thermostat at 37° C. at a constant moisture (90%), CO2=5%. When the drug is not soluble in the culture medium, it is formerly dissolved in a small amount of dimethylsulphoxide. The maximum amount of dimethylsulphoxide which can be added to the culture medium is 0.5%. Only the cells coming from these first subcultures are used for the tests with cumene hydroperoxide (CIP). The cells are identified as endothelial cells by morphological examination and by the specific immunological reaction towards factor VIII; these cultures did never show contaminations from myocytes or fibroblasts.
# Before starting the test, the cellular culture medium is removed and the cellular layers are carefully washed with a standard physiologic solution buffered with phosphate 0.1 M pH 7.0, at the temperature of 37° C. The content of each well is then incubated for one hour with a CIP suspension in the culture medium at a 5 mM concentration. Evaluation of the cellular damage (apoptosis) is carried out by determining the percent variation of the DNA fragmentation in the cultures containing the drug+CIP with respect to the controls treated with CIP only. […] The fluorescence of each sample was determined on 5 replicates. Statistic evaluation has been made with t Student test (p<0.01).
# [4] = Test 4: inhibition of radical production from DPPH; conditions: tested substance 100 μM in methanol, 30 minutes, absorbance 517 nm
# Experimental: Test 4 is a colorimetric test which must not be satisfied by the precursor of B or B1 (precursor of the X2 or X2a of the formulas (I) and (II) respectively). The inhibition of the production of radicals from DPPH (2,2-diphenyl-1-picryl-hydrazyl) is described in M. S. Nenseter et Al., Atheroscler. Thromb. 15, 1338-1344, 1995. 100 μM solutions in methanol of the tested substances are prepared, and an aliquot of each of said solutions is added to a DPPH solution in methanol 0.1 M. After having stored the solutions at room temperature away from light for 30 minutes, their absorbances are read at the wave length of 517 nm, together with that of the corresponding DPPH solution at the same concentration. The absorbance decrease with respect to that of the solution of DPPH at the same concentration of the test solutions is determined. The effectiveness of the tested compound in inhibiting formation of radicals by DPPH is expressed by the following formula: (1−AS/AC)×100 wherein AS and AC are respectively the absorbance values of the solution containing the test compound together with DPPH and of the solution containing only DPPH. Test 4 is satisfied when the inhibition is equal or greater than 50%.
# Test 4: Inhibition of the Radical Production from DPPH of Some Substances Used as Precursors of B or B1 (Ref. Formulas I and II of the Invention)
# The method is based on a calorimetric test in which DPPH (2,2-diphenyl-1-picryl-hydrazyl) is used as the compound-forming radicals (M. S. Nenseter et Al., Atheroscler. Thromb. 15, 1338-1344, 1995).
# Solutions in methanol of the tested substances at a final concentration 100 μM are initially prepared. 0.1 ml of each of these solutions are added to aliquots of 1 ml of a methanol solution 0.1 M of DPPH and then the final volume is brought to 1.5 ml. After having stored the solutions at room temperature away from light for 30 minutes, the absorbance at the wave length of 517 nm is read. It is determined the absorbance decrease with respect to the absorbance of a solution containing the same concentration of DPPH.
# The efficacy of the test compound to inhibit the production of radicals, or antiradical activity, is expressed by the following formula: (1−AS/AC)×100 wherein AS and AC are, respectively, the absorbance values of the solution containing the test compound together+DPPH and of the solution containing only DPPH.
# [5] = drug 10^-4 M, CIP 5 mM for one hour, DNA fragmentation
# [6] = rats, dose and route as in the column beside (higher doses than in L-NAME animals)
structure (smiles),measurement,setting,value
NCCCC(O)(P(=O)(O)O)P(=O)(O)O [Alendronate],"% gastropathy, animals not treated with L-NAME","[1]; rat, in vivo, 4 weeks",90%
same,"% gastropathy, animals treated with L-NAME","[1]; rat, in vivo, 4 weeks",70%
same,Gastro-enteropathy (% incidence) without NEM,[2],0%
same,"inhibition of apoptosis induced by CIP (in words, t Student p<0.01)",[3]; drug 10^-4 M,do not significantly inhibit apoptosis
N[C@@H](CS)C(=O)O [Cisteine],% inhibition radical production from DPPH,[4],100%
CC(=O)Nc1ccc(O)cc1 [Paracetamol],"inhibition of apoptosis induced by CIP (in words, t Student p<0.01)",[3]; drug 10^-4 M,do not significantly inhibit apoptosis; also recorded: not significantly different with respect to that of the controls
CC1(C)S[C@@H]2[C@H](NC(=O)[C@H](N)c3ccccc3)C(=O)N2[C@H]1C(=O)O [Ampicilline],activity at 100 µM,[3]; [5],94%
same,"inhibition of apoptosis induced by CIP (in words, t Student p<0.01)",[3]; drug 10^-4 M,do not significantly inhibit apoptosis
Nc1nc2c(ncn2COCCO)c(=O)[nH]1 [Aciclovir],activity at 100 µM,[3]; [5],95%
same,"inhibition of apoptosis induced by CIP (in words, t Student p<0.01)",[3]; drug 10^-4 M,do not significantly inhibit apoptosis
CCOC(=O)[C@H](CCc1ccccc1)N[C@@H](C)C(=O)N1CCC[C@H]1C(=O)O [Enalapril],activity at 100 µM,[3]; [5],80%
same,"inhibition of apoptosis induced by CIP (in words, t Student p<0.01)",[3]; drug 10^-4 M,do not significantly inhibit apoptosis
COC(=O)[C@H](c1ccccc1Cl)N1CCc2sccc2C1 [Clopidogrel],activity at 100 µM,[3]; [5],110%
same,"inhibition of apoptosis induced by CIP (in words, t Student p<0.01)",[3]; drug 10^-4 M,do not significantly inhibit apoptosis
"Nc1c(Br)cc(Br)cc1CNC1CCC(OC(=O)CCC(=O)OCCCCO[N+](=O)[O-])CC1 (stereo not shown) [Example 7, [4-oxo-(4-nitroxybutyloxy)butanoyl4-(2-amino-3,5-dibromophenyl)-methylamino] cyclohexanol ester]","% gastropathy, animals treated with L-NAME","[1]; rats, L-NAME",0%
same,"% gastropathy, animals not treated with L-NAME",[1]; [6],10%
O=C(O)COCCN1CCN(C(c2ccccc2)c2ccc(Cl)cc2)CC1 (stereo not shown) [Cetirizine],activity at 100 µM,[3]; [5],115%
same,"inhibition of apoptosis induced by CIP (in words, t Student p<0.01)",[3]; drug 10^-4 M,do not significantly inhibit apoptosis
CC(C)(C)NCC(O)c1ccc(O)c(CO)c1 (stereo not shown) [Salbutamol],"inhibition of apoptosis induced by CIP (in words, t Student p<0.01)",[3]; drug 10^-4 M,do not significantly inhibit apoptosis
COc1cc(/C=C/C(=O)O)ccc1O [Ferulic acid],% inhibition radical production from DPPH,[4],100%
Nc1ccc(O)c(C(=O)O)c1 [Mesalamine],Gastro-enteropathy (% incidence) without NEM,[2],0%
same,"inhibition of apoptosis induced by CIP (in words, t Student p<0.01)",[3]; drug 10^-4 M,inhibit apoptosis; also recorded: inhibits the apoptosis induced by CIP
CC(=O)N[C@@H](CS)C(=O)O [N-acetylcisteine],% inhibition radical production from DPPH,[4]; listed as N-acetylcysteine,100%
O=C(O)Cc1ccccc1Nc1c(Cl)cccc1Cl [Diclofenac],"% gastropathy, animals not treated with L-NAME","[1]; rat, in vivo, 4 weeks",70%
same,"% gastropathy, animals treated with L-NAME","[1]; rat, in vivo, 4 weeks",100%
"O=C(Cc1ccccc1Nc1c(Cl)cccc1Cl)NC(Cc1c[nH]cn1)C(=O)OCCCCO[N+](=O)[O-] (stereo not shown) [Example 4, [2-[(2,6-dichlorophenyl)amino]-benzeneacetyloxy]-(L)-histidine 4-(nitroxy)butyl ester]","% gastropathy, animals treated with L-NAME","[1]; rats, L-NAME",0%
same,"% gastropathy, animals not treated with L-NAME",[1]; [6],0%
O=C(O)c1cc(O)ccc1O [Gentisic acid],% inhibition radical production from DPPH,[4],80%
O=C1NC(C(=O)O)CS1 (stereo not shown) [2-oxo-4-thiazolidin carboxylic acid],% inhibition radical production from DPPH,[4],0%
NC(=O)c1cccnc1 [Nicotinamide],"inhibition of apoptosis induced by CIP (in words, t Student p<0.01)",[3]; drug 10^-4 M,do not significantly inhibit apoptosis
O=C(CCC(=O)OCCCCO[N+](=O)[O-])Nc1c2c(nc3ccccc13)CCCC2 [Example 5],"% gastropathy, animals treated with L-NAME","[1]; rats, L-NAME",0%
same,"% gastropathy, animals not treated with L-NAME",[1]; [6],20%
Cn1c(=O)c2c(ncn2CC(O)CO)n(C)c1=O (stereo not shown) [Diphylline],"inhibition of apoptosis induced by CIP (in words, t Student p<0.01)",[3]; drug 10^-4 M,do not significantly inhibit apoptosis
same,Apoptosis % with respect to the controls treated only with CIP,[3]; [5],95%
"O=C(CCC(=O)OCCCCO[N+](=O)[O-])NCCCC(O)(P(=O)(O)O)P(=O)(O)O [Example 6, [4-amino-[4-oxo-(4-nitroxybutyloxy)butanoyl]-1-hyroxybutyliden] biphosphonic acid]","% gastropathy, animals treated with L-NAME","[1]; rats, L-NAME",10%
same,"% gastropathy, animals not treated with L-NAME",[1]; [6],20%
CCC(C)(C)C(=O)O[C@H]1C[C@@H](C)C=C2C=C[C@H](C)[C@H](CC[C@@H]3C[C@@H](O)CC(=O)O3)[C@H]21 [Simvastatine],activity at 100 µM,[3],72%
